Consider 25 compounds from US7638540B2, “Benzofuran compound and medicinal composition containing the same” (The New Industry Research Organization, priority 2003, dated 2009).

One series relates to LTB4 receptor. Description: TXB2 release from guinea pig eosinophils stimulated with LTB4 (LTB4 receptor antagonist activity). The format is cell-based. To be noted: 10^−3 M test compound (37.5 μl) added to 300 μl cell suspension, then 10^−7 M LTB4 (37.5 μl), 37° C. 15 min, positive control 100, negative control 0, N.D. = TXB2 concentration at measurement limit or less. On the procedure:
The LTB4 receptor antagonist activity of the test compound was examined using, as an index, thromboxane B2 (TXB2) released when stimulating eosinophil of guinea pig with LTB4.
Based on the method described in Japanese Journal of Pharmacology, vol. 70, p. 337-345 (1996) etc., eosinophils of guinea pig were prepared. A cell suspension (300 μl, 1.25×10^6 cells/ml) was placed in a 5 ml polypropylene test tube and, after incubation at 37° C. for 5 min., 10^−3 M test compound (37.5 μl) dissolved in 0.1% DMSO aqueous solution was added and the cells were continuously cultured for 5 min. Then, 10^−7 M LTB4 (37.5 μl) was added to induce the reaction and the cells were incubated at 37° C. for 15 min. The reaction was quenched in ice water, and the culture was centrifuged at 4° C., 3000 rpm for 10 min. The obtained supernatant was prepared as a sample for TXB2 measurement, and preserved at −80° C. before use for the measurement. The quantitation of TXB2 was performed using a TXB2 enzyme immunoassay kit (manufactured by Cayman Chemical Company). The release ratio (%) of TXB2 from the eosinophils was determined by the following formula: release ratio (%) of TXB2=[(average value of test compound administration group−average value of negative control group)/(average value of positive control group−average value of negative control group)]×100
As used herein, the positive control group means a group to which stimulation with LTB4 was applied but the same volume of a medium was given instead of the test compound, and the negative control group means a group to which stimulation with LTB4 was not applied, the same volume of a medium was given instead of LTB4, and the same volume of a medium was given instead of the test compound. When the release ratio of TXB2 is smaller than 0, it means that the measured TXB2 concentration was lower than that of the negative control group. When the TXB2 concentration in the sample was the measurement limit or less, N.D. is indicated.

One may read the melting point as the temperature, or range, at which the solid turns liquid.

Compound `CCN(CC)C(=O)/C=C(\C)c1ccc(OCCCC(=O)O)c2oc(/C(C)=C/C(=O)O)cc12` [Example 2, (E)-3-[7-(3-carboxypropoxy)-4-(2-diethylcarbamoyl-1-methylvinyl)benzofuran-2-yl]-2-butenoic acid] had a melting point of 199.5 to 201.9 °C. The “Amount of TXB2 release (%)” value in the series on LTB4 receptor is given as 5.77%.
The matching figures for `CC(=O)c1cc2c(/C(C)=C/C(=O)N3CCN(c4ccccc4)CC3)ccc(OC(C)c3ccccc3)c2o1` (centres unmarked) [Example 5, (E)-3-[2-acetyl-7-(1-phenylethoxy)benzofuran-4-yl]-1-(4-phenylpiperazin-1-yl)-2-buten-1-one]: 79 to 84.6 °C and 81.6%.
On to `CC(=O)c1cc2c(/C(C)=C/C(=O)N3CCN(c4ccccc4)CC3)ccc(OC(c3ccccc3)c3ccccc3)c2o1` [Example 6, (E)-3-(2-acetyl-7-benzhydryloxybenzofuran-4-yl)-1-(4-phenylpiperazin-1-yl)-2-buten-1-one], for which the melting point is 152 to 160 °C. The “Amount of TXB2 release (%)” value in the series with LTB4 receptor worked out at 38.93%.
The matching figures for `CC(=O)c1cc2c(/C(C)=C/C(=O)N3CCOCC3)ccc(OC(c3ccccc3)c3ccccc3)c2o1` [Example 7, (E)-3-(2-acetyl-7-benzhydryloxybenzofuran-4-yl)-1-morpholino-2-buten-1-one]: 167 to 169.3 °C and 9.89%.
The matching figures for `CC(=O)c1cc2c(/C(C)=C/C(=O)N3CCOCC3)ccc(OC(C)c3ccccc3)c2o1` (centres unmarked) [Example 9, (E)-3-[2-acetyl-7-(1-phenylethoxy)benzofuran-4-yl]-1-morpholino-2-buten-1-one]: 173.9 to 175.4 °C and 0.68%.
The matching figures for `CC(=O)c1cc2c(/C(C)=C/C(=O)N3CCN(Cc4ccccc4)CC3)ccc(OC(C)c3ccccc3)c2o1` (centres unmarked) [Example 10, (E)-3-[2-acetyl-7-(1-phenylethoxy)benzofuran-4-yl]-1-(4-benzylpiperazin-1-yl)-2-buten-1-one]: 196 to 202.1 °C and 23.43%.
In the case of `CCN(CC)C(=O)/C=C(\C)c1ccc(OCC(=O)c2ccc3c(c2)OCO3)c2oc(C(C)=O)cc12` [Example 13, (E)-3-[2-acetyl-7-(2-benzo[1,3]dioxol-5-yloxoethoxy)benzofuran-4-yl]-N,N-diethyl-2-butenamide], the melting point is 142 to 144 °C. Also, the “Amount of TXB2 release (%)” value with LTB4 receptor was found to be 31.8%.
The matching figures for `CCOC(=O)c1ccc(OC)c(NC(=O)/C=C(\C)c2ccc3oc(C(C)=O)c(N)c3c2)c1` [Example 16, Ethyl (E)-3-[3-(2-acetyl-3-aminobenzofuran-5-yl)-2-butenoylamino]-4-methoxybenzoate]: 189 to 193 °C and 56.57%.
The compound `COc1ccc(CCNC(=O)/C=C(\C)c2ccc3oc(C(C)=O)c(N)c3c2)cc1OC` [Example 17, (E)-3-(2-acetyl-3-aminobenzofuran-5-yl)-N-[2-(3,4-dimethoxyphenyl)ethyl]-2-butenamide] yielded a melting point of 168 to 173 °C. Further, in the series on LTB4 receptor, the “Amount of TXB2 release (%)” value is reported as 27.92%.
The matching figures for `CC(=O)c1oc2ccc(/C(C)=C/C(=O)N3CCN(Cc4ccccc4)CC3)cc2c1N` [Example 19, (E)-3-(2-acetyl-3-aminobenzofuran-5-yl)-1-(4-benzylpiperazin-1-yl)-2-buten-1-one]: 144 to 148.3 °C and 48.63%.
The matching figures for `CCN(CC)C(=O)/C=C(\C)c1ccc2oc(C(C)=O)c(NC(=O)Cc3ccc(OC)cc3)c2c1` [Example 21, (E)-3-{2-acetyl-3-[2-(4-methoxyphenyl)acetylamino]-benzofuran-5-yl}-N,N-diethyl-2-butenamide]: 121.8 to 122.3 °C and 56.57%.
The matching figures for `CCOC(=O)CCCOc1cccc2cc(/C(C)=C/C(=O)Nc3ccc(OC)cc3)oc12` [Example 28, Ethyl (E)-4-{2-[2-(4-methoxyphenylcarbamoyl)-1-methylvinyl]benzofuran-7-yloxy}butyrate]: 141.3 to 141.5 °C and −0.23%.
Consider `CCN(CC)C(=O)/C=C(\C)c1cc2c(Br)ccc(OCCCC(=O)O)c2o1` [Example 36, (E)-4-[4-bromo-2-(2-diethylcarbamoyl-1-methylvinyl)benzofuran-7-yloxy]butyric acid], for which the melting point is 125.5 to 127 °C. The “Amount of TXB2 release (%)” value in the series on LTB4 receptor is on record as −0.301%.
The matching figures for `COc1cccc(NC(=O)/C=C(\C)c2cc3cccc(OC(c4ccccc4)c4ccccc4)c3o2)c1` [Example 38, (E)-3-(7-benzhydryloxybenzofuran-2-yl)-N-(3-methoxyphenyl)-2-butenamide]: 167.2 to 168.2 °C and 91.73%.
The matching figures for `CCOC(=O)CCCOc1cccc2cc(/C(C)=C/C(=O)NCC(=O)OCC)oc12` [Example 40, Ethyl (E)-4-{2-[2-(ethoxycarbonylmethylcarbamoyl)-1-methylvinyl]benzofuran-7-yloxy}butyrate]: 96.2 to 98.5 °C and −0.18%.
The matching figures for `COc1cccc(NC(=O)/C=C(\C)c2cc3c(S(=O)(=O)NCCc4ccc(OC)c(OC)c4)ccc(OCCCCl)c3o2)c1` [Example 51, (E)-3-{7-(3-chloropropoxy)-4-[2-(3,4-dimethoxyphenyl)ethylsulfamoyl]benzofuran-2-yl}-N-(3-methoxyphenyl)-2-butenamide]: 162.2 to 164.5 °C and 38.93%.
With `COc1cccc(NC(=O)/C=C(/C)c2cc3c(S(=O)(=O)NCCc4ccc(OC)c(OC)c4)ccc(OCCCCl)c3o2)c1` [Example 52, (Z)-3-{7-(3-chloropropoxy)-4-[2-(3,4-dimethoxyphenyl)ethylsulfamoyl]benzofuran-2-yl}-N-(3-methoxyphenyl)-2-butenamide], the melting point fell in the range of 146.1 to 150 °C. In the series on LTB4 receptor, the “Amount of TXB2 release (%)” value is 60.6%.
The matching figures for `COc1cccc(NC(=O)/C=C/C=C(\Cl)c2cc3cc(Br)ccc3o2)c1` [Example 54, (2E,4Z)-5-(5-bromobenzofuran-2-yl)-5-chloropenta-2,4-dienoic acid (3-methoxyphenyl)amide]: 204.3 to 207.1 °C and 60.6%.
`COc1ccc(CCNC(=O)/C=C/C=C(\Cl)c2cc3cc(Br)ccc3o2)cc1OC` [Example 55, (2E,4Z)-5-(5-bromobenzofuran-2-yl)-5-chloropenta-2,4-dienoic acid [2-(3,4-dimethoxyphenyl)ethyl]amide] displayed a melting point of 161.3 to 162.1 °C. Moreover, the “Amount of TXB2 release (%)” value in the series on LTB4 receptor came to 53.91%.
In the case of `COc1ccc(CCNC(=O)/C=C/C=C(\Cl)c2cc3cccc(OC)c3o2)cc1OC` [Example 56, (2E,4Z)-5-chloro-5-(7-methoxybenzofuran-2-yl)-penta-2,4-dienoic acid [2-(3,4-dimethoxyphenyl)ethyl]amide], the melting point is 151.4 to 153.3 °C. In addition, the “Amount of TXB2 release (%)” value in the series on LTB4 receptor is reported as 52.39%.
The matching figures for `COc1cccc(NC(=O)/C=C/C=C(\Cl)c2cc3cccc(OC)c3o2)c1` [Example 57, (2E,4Z)-5-chloro-5-(7-methoxybenzofuran-2-yl)penta-2,4-dienoic acid (3-methoxyphenyl)amide]: 194.3 to 197.3 °C and 78.01%.
The matching figures for `CC(=O)c1oc2ccc(/C(C)=C/C(=O)N3CCN(c4ccccc4)CC3)cc2c1NC(=O)c1cnoc1C` [Example 75, (E)-N-{2-acetyl-5-[1-methyl-3-oxo-3-(4-phenylpiperazin-1-yl)-1-propenyl]benzofuran-3-yl}-5-methylisoxazole-4-carboxamide]: 201.5 to 204.4 °C and 27.03%.
`CCN(CC)C(=O)/C=C(\C)c1ccc2oc(C(C)=O)c(NC(=O)/C(C#N)=C(/C)O)c2c1` [Example 94, N-{2-acetyl-5-[(E)-2-diethylcarbamoyl-1-methylvinyl]benzofuran-3-yl}-2-cyano-3-hydroxy-(Z)-2-butenamide]: the melting point lay within 169.3 to 171 °C. For the same compound, the “Amount of TXB2 release (%)” value in the series with LTB4 receptor was −0.1%.
`CCOC(=O)c1oc2ccc(Br)cc2c1NC(=O)/C(C#N)=C(/C)O` [Example 97, Ethyl (Z)-5-bromo-3-(2-cyano-3-hydroxy-2-butenoylamino)benzofurane-2-carboxylate]: the melting point is 186.3 to 187.2 °C. In addition, the “Amount of TXB2 release (%)” value in the series with LTB4 receptor was −0.12%.
The matching figures for `CC(=O)c1oc2ccc(Br)cc2c1NC(=O)/C=C/c1ccccc1` [Example 114, (E)-N-(2-acetyl-5-bromobenzofuran-3-yl)-3-phenylacrylamide]: 180.2 to 181.1 °C and 51.42%.
